# Where a name gives a salt, the structure may show the parent alone.
# Tested on: SU-DHL-4 cells
# Assay: Inhibitory effect on cell viability (Cell Counting Kit-8)
# Type: cell-based
# Conditions: Homo sapiens, 72 hours culture with test compound, concentration showing 90% inhibition rate of cell viability
# Experimental: Inhibitiory Effect on Cell Viability
# SU-DHL-4 cells (Code No. ACC 495, Deutsche Sammlung von Mikroorganismen and Zellkulturen GmbH) were cultured at 37° C. using a carbon dioxide incubator (95% air, 5% CO2) in RPMI1640 medium (Code No. 11875-093, Thermo Fisher Scientific) in which inactivated fetal bovine serum (FBS: Code No. 10099-148, Thermo Fisher Scientific) in an amount to give a final concentration of 10 vol % and penicillin/streptomycin solution (PS: Code No. 15140-122, Thermo Fisher Scientific) in an amount to give a final concentration of 1 vol % were added. The cells were passaged twice a week at a volume of 20-40 mL so as to maintain a cell concentration of 1×10^6 cells/mL or less.
# The cultured SU-DHL-4 cells were seeded at 2000 cells/well in a transparent 384-well plate (Code No. 781182, Greiner bio-one). After seeding, the cells were precultured at 37° C. in a carbon dioxide gas incubator for 18 to 25 hours. Next, 1, 0.1 or 0.01 mmol/L DMSO solution of the test compound was prepared and a 9-step dilution series were prepared so that the concentration will be 200 times the final concentration in the RPMI1640 medium containing the above FBS and PS, and 1/200 volume of the dilution series were added to each well. At this time, the final concentration of DMSO was adjusted to be 0.1 vol %. After adding the test compound, the cells were cultured at 37° C. in a carbon dioxide gas incubator for 72 hours. Next, 0.020 mL of Cell Counting Kit-8 (Code No. CK04, DOJINDO) solution diluted 2-fold or 4-fold with phosphate buffered saline (PBS) was added to each well. Color reaction was carried out in a carbon dioxide gas incubator at 37° C. for 2 to 3 hours, and the absorbance at a wavelength of 450 nm was measured using SpectraMax 340PC (Molecular Devices). The inhibition rate of cell viability was calculated by the following formula, and the concentration of the test compound (IC90 value) showing a 90% inhibition rate of cell viability was calculated. Inhibition rate of cell viability (%)=100−(A−B)/(C−B)×100 • A: Absorbance of a well containing test compound • B: Absorbance of a well without addition of cells • C: Absorbance of a well without addition of test compound
row,Compound,IC90 [nM]
1,"CCC(=O)N1c2ccccc2[C@H](Nc2ccc(CN3CCn4cc(-c5ccc(N[C@@H]6C[C@H](C)N(C(=O)CC)c7ccccc76)cc5)nc4C3)cc2)C[C@@H]1C [Compound 5b, 1-((2S,4R)-2-Methyl-4-((4-((2-(4-(((2S,4R)-2-methyl-1-propionyl-1,2,3,4-tetrahydroquinolin-4-yl)amino)phenyl)-5,6-dihydroimidazo[1,2-a]pyrazin-7(8H)-yl)methyl)phenyl)amino)-3,4-dihydroquinolin-1(2H)-yl)propan-1-one]",39.6
2,"CCC(=O)N1c2ccccc2[C@H](Nc2ccc(Cc3cnc4n3CCN(Cc3ccc(N[C@@H]5C[C@H](C)N(C(=O)CC)c6ccccc65)cc3)C4)cc2)C[C@@H]1C [Compound 5c, 1,1′-((2S,2′S,4R,4′R)-((((5,6-Dihydroimidazo[1,2-a]pyrazine-3,7(8H)-diyl)bis(methylene))bis(4,1-phenylene))bis(azanediyl))bis(2-methyl-3,4-dihydroquinoline-4,1(2H)-diyl))bis(propan-1-one)]",63.6
3,"CCC(=O)N1c2ccccc2[C@H](Nc2ccc(NC(=O)N3CCN(C(=O)c4ccc(N[C@@H]5C[C@H](C)N(C(=O)CC)c6ccccc65)cc4)CC3)cc2)C[C@@H]1C (relative stereo) [Compound 6m, 4-(4-(((2S,4R)-2-Methyl-1-propionyl-1,2,3,4-tetrahydroquinolin-4-yl)amino)benzoyl)-N-(4-(((2S*,4R*)-2-methyl-1-propionyl-1,2,3,4-tetrahydroquinolin-4-yl)amino)phenyl)piperazine-1-carboxamide]",0.12
4,"CCC(=O)N1c2ccccc2[C@H](Nc2ccc(CNC3CN(C(=O)c4ccc(N[C@@H]5C[C@H](C)N(C(=O)CC)c6ccccc65)cc4)C3)cc2)C[C@@H]1C [Compound 5e, 1-((2S,4R)-2-Methyl-4-((4-(((1-(4-(((2S,4R)-2-methyl-1-propionyl-1,2,3,4-tetrahydroquinolin-4-yl)amino)benzoyl)azetidin-3-yl)amino)methyl)phenyl)amino)-3,4-dihydroquinolin-1(2H)-yl)propan-1-one]",5.93
5,"CCC(=O)N1c2ccccc2[C@H](Nc2ccc(CNCCn3cc(-c4ccc(N[C@@H]5C[C@H](C)N(C(=O)CC)c6ccccc65)cc4)cn3)cc2)C[C@@H]1C [Compound 5f, 1-((2S,4R)-2-Methyl-4-((4-(((2-(4-(4-(((2S,4R)-2-methyl-1-propionyl-1,2,3,4-tetrahydroquinolin-4-yl)amino)phenyl)-1H-pyrazol-1-yl)ethyl)amino)methyl)phenyl)amino)-3,4-dihydroquinolin-1(2H)-yl)propan-1-one]",24.7
6,"CCC(=O)N1c2ccccc2[C@H](Nc2ccc(C(=O)NCCc3cn(-c4ccc(N[C@@H]5C[C@H](C)N(C(=O)CC)c6ccccc65)cc4)nn3)cc2)C[C@@H]1C [Compound 6c, 4-(((2S,4R)-2-Methyl-1-propionyl-1,2,3,4-tetrahydroquinolin-4-yl)amino)-N-(2-(1-(4-(((2S,4R)-2-methyl-1-propionyl-1,2,3,4-tetrahydroquinolin-4-yl)amino)phenyl)-1H-1,2,3-triazol-4-yl)ethyl)benzamide]",0.83
7,"CCC(=O)N1c2ccccc2[C@H](Nc2ccc(CNCC(=O)Nc3ccc(N[C@@H]4C[C@H](C)N(C(=O)CC)c5ccccc54)cc3)cc2)C[C@@H]1C [Compound 5i, 2-((4-(((2S,4R)-2-Methyl-1-propionyl-1,2,3,4-tetrahydroquinolin-4-yl)amino)benzyl)amino)-N-(4-(((2S,4R)-2-methyl-1-propionyl-1,2,3,4-tetrahydroquinolin-4-yl)amino)phenyl)acetamide hydrochloride]",4.49
8,"CCC(=O)N1c2ccccc2[C@H](Nc2ccc(NC(=O)CCSc3ccc(N[C@@H]4C[C@H](C)N(C(=O)CC)c5ccccc54)cc3)cc2)C[C@@H]1C (relative stereo) [Compound 4e, N-(4-{[(2S*,4R*)-2-Methyl-1-propionyl-1,2,3,4-tetrahydroquinolin-4-yl]amino}phenyl)-3-[(4-{[(2S,4R)-2-methyl-1-propionyl-1,2,3,4-tetrahydroquinolin-4-yl]amino}phenyl)thio]propanamide]",0.34

# More lines, now with the values ahead:
row,IC90 [nM],Compound
1,73.7,"CCC(=O)N1c2ccccc2[C@H](NCCOCCOCc2cn(-c3ccc(N[C@@H]4C[C@H](C)N(C(=O)CC)c5ccccc54)cc3)nn2)C[C@@H]1C (relative stereo) [Compound 12e, 1-((2S*,4R*)-2-Methyl-4-((2-(2-((1-(4-(((2S,4R)-2-methyl-1-propionyl-1,2,3,4-tetrahydroquinolin-4-yl)amino)phenyl)-1H-1,2,3-triazol-4-yl)methoxy)ethoxy)ethyl)amino)-3,4-dihydroquinolin-1(2H)-yl)propan-1-one]"
2,0.12,"CCC(=O)N1c2ccccc2[C@H](Nc2ccc(-c3cnn(CCNC(=O)c4ccc(C5=NCc6nnc(C)n6-c6sc(C)c(C)c65)cc4)c3)cc2)C[C@@H]1C [Compound 14b, N-(2-(4-(4-(((2S,4R)-2-Methyl-1-propionyl-1,2,3,4-tetrahydroquinolin-4-yl)amino)phenyl)-1H-pyrazol-1-yl)ethyl)-4-(2,3,9-trimethyl-6H-thieno[3,2-f][1,2,4]triazolo[4,3-a][1,4]diazepin-4-yl)benzamide]"
3,1.01,"CCC(=O)N1c2ccccc2[C@H](Nc2ccc(-c3nnc(CNC(=O)C4CCN(Cc5cc(O)cc(-c6c(C)noc6C)c5)CC4)o3)cc2)C[C@@H]1C [Compound 12a, 1-(3-(3,5-Dimethylisoxazol-4-yl)-5-hydroxybenzyl)-N-((5-(4-(((2S,4R)-2-methyl-1-propionyl-1,2,3,4-tetrahydroquinolin-4-yl)amino)phenyl)-1,3,4-oxadiazol-2-yl)methyl)piperidine-4-carboxamide]"
4,4.35,"CCC(=O)N1c2ccccc2[C@H](Nc2ccc(NC(=O)C3CN(C(=O)C4CCN(Cc5cc(O)cc(-c6c(C)noc6C)c5)CC4)C3)cc2)C[C@@H]1C [Compound 12b, 1-(1-(3-(3,5-Dimethylisoxazol-4-yl)-5-hydroxybenzyl)piperidine-4-carbonyl)-N-(4-(((2S,4R)-2-methyl-1-propionyl-1,2,3,4-tetrahydroquinolin-4-yl)amino)phenyl)azetidine-3-carboxamide]"
5,0.04,"CCC(=O)N1c2ccccc2[C@H](Nc2ccc(-n3cc(CNC(=O)c4ccc(Cn5c(CC)cc6c5CCCC6=O)cc4)nn3)cc2)C[C@@H]1C [Compound 15f, 4-((2-Ethyl-4-oxo-4,5,6,7-tetrahydro-1H-indol-1-yl)methyl)-N-((1-(4-(((2S,4R)-2-methyl-1-propionyl-1,2,3,4-tetrahydroquinolin-4-yl)amino)phenyl)-1H-1,2,3-triazol-4-yl)methyl)benzamide]"
6,0.03,"CCC(=O)N1c2ccccc2[C@H](Nc2ccc(NC(=O)C#CCNC(=O)c3ccc(C4=NCc5nnc(C)n5-c5sc(C)c(C)c54)cc3)cc2)C[C@@H]1C [Compound 14i, N-(4-((4-(((2S,4R)-2-Methyl-1-propionyl-1,2,3,4-tetrahydroquinolin-4-yl)amino)phenyl)amino)-4-oxobut-2-yn-1-yl)-4-(2,3,9-trimethyl-6H-thieno[3,2-f][1,2,4]triazolo[4,3-a][1,4]diazepin-4-yl)benzamide]"
7,15.9,"CCC(=O)N1c2ccccc2[C@H](Nc2ccc(NC(=O)CCCC(=O)Nc3ccc(N[C@@H]4C[C@H](C)N(C(=O)CC)c5cc(C6=CCNCC6)ccc54)cc3)cc2)C[C@@H]1C (relative stereo) [Compound 10u, N^1-(4-(((2S,4R)-2-Methyl-1-propionyl-1,2,3,4-tetrahydroquinolin-4-yl)amino)phenyl)-N^5-(4-(((2S*,4R*)-2-methyl-1-propionyl-7-(1,2,3,6-tetrahydropyridin-4-yl)-1,2,3,4-tetrahydroquinolin-4-yl)amino)phenyl)glutaramide]"
8,0.49,"CCC(=O)N1c2ccccc2[C@H](Nc2ccc(SCCNC(=O)c3ccc(C4=N[C@@H](CC(=O)OCCN(C)C)c5nnc(C)n5-c5sc(C)c(C)c54)cc3)cc2)C[C@@H]1C [Compound 13a, 2-(Dimethylamino)ethyl 2-((S)-2,3,9-trimethyl-4-(4-((2-((4-(((2S,4R)-2-methyl-1-propionyl-1,2,3,4-tetrahydroquinolin-4-yl)amino)phenyl)thio)ethyl)carbamoyl)phenyl)-6H-thieno[3,2-f][1,2,4]triazolo[4,3-a][1,4]diazepin-6-yl)acetate]"
9,1.15,"CCC(=O)N1c2ccccc2[C@H](NCc2ccc(C(=O)N3CC(C(=O)Nc4ccc(N[C@@H]5C[C@H](C)N(C(=O)CC)c6ccccc65)cc4)C3)cc2)C[C@@H]1C (relative stereo) [Compound 10g, 1-(4-((((2S*,4R*)-2-Methyl-1-propionyl-1,2,3,4-tetrahydroquinolin-4-yl)amino)methyl)benzoyl)-N-(4-(((2S,4R)-2-methyl-1-propionyl-1,2,3,4-tetrahydroquinolin-4-yl)amino)phenyl)azetidine-3-carboxamide]"
